From patent publication USRE50724E1, “4-membered ring carboxamides used as nematicides” (SYNGENTA CROP PROTECTION AG, priority 2013, dated 2026)

What was measured:
Heterodera schachtii = Heterodera schachtii (sugar beet cyst nematode), nematicide, contact activity: juvenile paralysis in 16-well assay plates; format: in vivo; conditions: 200 ppm, approx. 500 juveniles per well, 24 hours incubation at 25° C. in darkness, read-out: nematode immobilization compared to the untreated control
Experimental: Heterodera schachtii (Sugar Beet Cyst Nematode), Nematicide, Contact Activity
The tested application rate of each compound was 200 ppm. All solutions were brought to a concentration of 400 ppm, respectively, as they were subsequently diluted by adding the equivalent amount of water containing juvenile nematodes. After preparation of the suspensions, 1 ml of each suspension and concentration was transferred to 16-well assay plates with a total of three replicates per treatment. Approximately 500 juveniles of Heterodera schachtii were added in 1 ml of water to each well. Nematodes in water served as controls. The plates were placed in a dark box and stored at room temperature. Nematode paralysis was determined after 24 hours incubation at 25° C. in darkness.

Meloidogyne spp. = Meloidogyne spp. (root-knot nematode), nematicide, contact activity, preventive: cucumber seed in filter paper pouch; format: in vivo; conditions: 288 h, cucumber cv. Toshka seed in pouch, 3000 eggs, twelve days, read-out: reduction of galling compared to the untreated control
Experimental: Meloidogyne spp. (Root-Knot Nematode) Nematicide, Contact Activity, Preventive. Filter papers (9 cm×4.5 cm) with a small pocket were placed into plastic pouches (12 cm×6 cm). One cucumber cv. Toshka seed was placed in the centre of the filter paper pocket of all the pouches needed for a test. The cucumber seeds in the pouches were treated with test solutions at 200 ppm by pipetting the solution directly over the cucumber seed in the filter paper pocket in the pouch. Prior to application, the compound solution was prepared at twice the concentration required and the egg suspension is prepared with FORL nutrient solution with 3000 eggs/0.5 ml. After applying all the treatments, 3000 eggs (in 0.5 ml of FORL nutrient solution) were pipetted into the pouches. The pouches were incubated in a moist chamber for twelve days and watered regularly to maintain good filter paper moisture essential for the growing cucumber root system. After this period, the filter paper containing the germinated cucumber seedling was removed from the plastic pouch to assess the number of galls caused by Meloidogyne spp. per root system. Phytotoxicity was measured as a reduction of growth of the emerged cucumber seedling in comparison to the control.

Row | Structure (SMILES) | pest or weed control at 200 ppm (Heterodera schachtii) | pest or weed control at 200 ppm (Meloidogyne spp.)
1 | Cc1ncccc1C(=O)N[C@H]1CC[C@H]1c1ccc(Cl)cc1Cl [Compound 61.7, N-[(1S,2S)-2-(2,4-dichlorophenyl)cyclobutyl]-2-methylpyridine-3-carboxamide] | > 75% | > 80%
2 | O=C(N[C@H]1CC[C@H]1c1ccc(Cl)cc1Cl)c1ccccc1Br [Compound 61.8, 2-bromo-N-[(1S,2S)-2-(2,4-dichlorophenyl)cyclobutyl]benzamide] | > 75% | > 80%
3 | O=C(N[C@H]1CC[C@H]1c1ccc(Cl)cc1)c1c(F)cccc1C(F)(F)F [Compound 61.41, N-[(1S,2S)-2-(4-chlorophenyl)cyclobutyl]-2-fluoro-6-(trifluoromethyl)benzamide] | > 75% | > 80%
4 | O=C(N[C@H]1CC[C@H]1c1ccc(Cl)cc1Cl)c1ncccc1Br [Compound 61.60, 3-bromo-N-[(1S,2S)-2-(2,4-dichlorophenyl)cyclobutyl]pyridine-2-carboxamide] | > 75% | > 80%
5 | Cc1occc1C(=O)N[C@H]1CC[C@H]1c1ccc(Cl)cc1Cl [Compound 61.64, N-[(1S,2S)-2-(2,4-dichlorophenyl)cyclobutyl]-2-methylfuran-3-carboxamide] | > 75% | > 80%
6 | O=C(N[C@H]1CC[C@H]1c1ccc(F)cc1F)c1ccsc1C(F)(F)F [Compound 61.137, N-[(1S,2S)-2-(2,4-difluorophenyl)cyclobutyl]-2-(trifluoromethyl)thiophene-3-carboxamide] | > 75% | 
7 | Cc1ncccc1C(=O)N[C@H]1CC[C@H]1c1ccc(F)cc1F [Compound 61.140, N-[(1S,2S)-2-(2,4-difluorophenyl)cyclobutyl]-2-methylpyridine-3-carboxamide] | > 75% | 
8 | O=C(N[C@H]1CC[C@H]1c1ccc(F)cc1F)c1ncccc1Cl [Compound 61.141, 3-chloro-N-[(1S,2S)-2-(2,4-difluorophenyl)cyclobutyl]pyridine-2-carboxamide] | > 75% | 
9 | O=C(N[C@H]1CC[C@H]1c1ccc(F)cc1F)c1sccc1Br [Compound 61.143, 3-bromo-N-[(1S,2S)-2-(2,4-difluorophenyl)cyclobutyl]thiophene-2-carboxamide] | > 75% | 
10 | Cc1occc1C(=O)N[C@H]1CC[C@H]1c1ccc(F)cc1F [Compound 61.144, N-[(1S,2S)-2-(2,4-difluorophenyl)cyclobutyl]-2-methylfuran-3-carboxamide] | > 75% | 
11 | O=C(N[C@H]1CC[C@H]1c1ccc(F)cc1F)c1ncccc1Br [Compound 61.146, 3-bromo-N-[(1S,2S)-2-(2,4-difluorophenyl)cyclobutyl]pyridine-2-carboxamide] | > 75% | 
12 | O=C(N[C@H]1CC[C@H]1c1ccc(F)cc1F)c1ncccc1C(F)(F)F [Compound 61.151, N-[(1S,2S)-2-(2,4-difluorophenyl)cyclobutyl]-3-(trifluoromethyl)pyridine-2-carboxamide] | > 75% | 
13 | O=C(N[C@H]1CC[C@H]1c1ccc(Cl)cc1Cl)c1nccnc1Br [Compound 61.162, 3-bromo-N-[(1S,2S)-2-(2,4-dichlorophenyl)cyclobutyl]pyrazine-2-carboxamide] | > 75% | 
14 | O=C(N[C@H]1CC[C@H]1c1ccc(Cl)cc1Cl)c1nnccc1C(F)(F)F [Compound 61.167, N-[(1S,2S)-2-(2,4-dichlorophenyl)cyclobutyl]-4-(trifluoromethyl)pyridazine-3-carboxamide] | > 75% | 
15 | O=C(N[C@H]1CC[C@H]1c1ccc(Cl)cc1Cl)c1ccoc1Br [Compound 61.173, 2-bromo-N-[(1S,2S)-2-(2,4-dichlorophenyl)cyclobutyl]furan-3-carboxamide] | > 75% | 
16 | O=C(N[C@H]1CC[C@H]1c1ccc(Cl)cc1Cl)c1ccoc1C(F)(F)F [Compound 61.174, N-[(1S,2S)-2-(2,4-dichlorophenyl)cyclobutyl]-2-(trifluoromethyl)furan-3-carboxamide] | > 75% | 
